Laboratory results published in ChEMBL document CHEMBL4219125, “Small molecule modulators of PCSK9 - A literature and patent overview” (Bioorg Med Chem Lett, 2018).
Values belong to the compound of their own block, whether it stands above or below them. Square brackets hold non-standard residues; d marks the D form. Peptide text beside a SMILES is read from it. hArg = N=C(N)NCCCC[C@H](N)C(=O)O

Legend:
HepG2 = assay: Inhibition of PCSK9 production in human HepG2 cells after 24 hrs by ELISA; format: functional, cell-based; conditions: HepG2, 24 h
[1] = biological target: T1, Proprotein convertase subtilisin/kexin type 9 (Homo sapiens, UniProt Q8NBP7); assay: Inhibition of PCSK9 in human HepG2 cells assessed as increase in uptake of fluorescent Dil-LDL at 0.37 uM relative to control; format: cell-based
[2] = biological target: T1, Proprotein convertase subtilisin/kexin type 9; assay: Inhibition of PCSK9 in human HepG2 cells assessed as increase in uptake of fluorescent Dil-LDL at 1.5 uM relative to control; format: cell-based
[3] = biological target: T1, Proprotein convertase subtilisin/kexin type 9; assay: Activation of PCSK9 (unknown origin) expressed in human HepG2 cells assessed as decrease in LDL uptake at 25 uM; format: cell-based; design: scale not given: the % may be the effect or the level left; conditions: hepg2, 25 µM
[4] = biological target: T1, Proprotein convertase subtilisin/kexin type 9; assay: Inhibition of PCSK9 in human HuH7 cells assessed as increase in LDL uptake by FACS analysis; format: cell-based; design: scale not given: the % may be the effect or the level left
[5] = biological target: T1, Proprotein convertase subtilisin/kexin type 9; assay: Inhibition of PCSK9 in human HuH7 cells assessed as increase in cell surface LDLR expression level at 100 uM by FACS analysis relative to control; format: cell-based; design: scale not given: the % may be the effect or the level left
[6] = biological target: T1, Proprotein convertase subtilisin/kexin type 9; assay: Binding affinity to recombinant human C-terminal His8-tagged PCSK9 expressed in Chinese hamster ovary cells by biolayer interferometry
Rattus norvegicus [7] = assay: In vivo inhibition of PCSK9 in rat plasma assessed as decrease in total plasma cholesterol level at 50 mg/kg, po administered daily for 14 days; format: functional; conditions: 336 h
Rattus norvegicus [8] = assay: Reduction of circulating PCSK9 level in rat plasma at 50 mg/kg, po administered daily for 14 days; format: functional; conditions: 336 h
Rattus norvegicus [9] = assay: In vivo inhibition of PCSK9 in rat plasma assessed as decrease in LDL-c level at 50 mg/kg, po administered daily for 14 days; format: functional; conditions: 336 h
HeLa = assay: Inhibition of PCSK9 expression in human HeLa cells after overnight incubation by ELISA; format: functional, cell-based
[10] = biological target: T1, Proprotein convertase subtilisin/kexin type 9; assay: Inhibition of recombinant human C-terminal His8-tagged PCSK9 expressed in Chinese hamster ovary cells by TR-FRET assay; format: cell-based
[11] = biological target: T1, Proprotein convertase subtilisin/kexin type 9; assay: Inhibition of PCSK9 (unknown origin) at 1.25 uM
[12] = biological target: T1, Proprotein convertase subtilisin/kexin type 9; assay: Inhibition of binding of full-length recombinant human PCSK9 (M1 to Q692 residues) expressed in HEK293 cells to full-length LDLR (A1 to A699 residues) by SPR analysis
[13] = biological target: T1, Proprotein convertase subtilisin/kexin type 9; assay: Inhibition of PCSK9 (unknown origin) expressed in human HepG2 cells assessed as increase in LDL uptake at 0.5 uM; format: cell-based; design: scale not given: the % may be the effect or the level left
[14] = biological target: T1, Proprotein convertase subtilisin/kexin type 9; assay: Inhibition of PCSK9 (unknown origin) expressed in human HepG2 cells assessed as increase in LDL uptake at 100 uM; format: cell-based; design: scale not given: the % may be the effect or the level left
[15] = biological target: T1, Proprotein convertase subtilisin/kexin type 9; assay: Inhibition of PCSK9 in human HepG2 cells assessed as increase in LDLR expression levels at 1.6 uM relative to control; format: cell-based
Mus musculus = assay: Reduction in plasma total cholesterol level in C57BL/6 mouse at 4 mg/kg, sc administered once daily for 2 weeks with high fat diet by enzymatic method relative to untreated control; format: functional; design: scale not given: the % may be the effect or the level left
[16] = biological target: T1, Proprotein convertase subtilisin/kexin type 9; assay: Inhibition of recombinant PCSK9 (unknown origin) expressed in human HepG2 cells assessed as increase in LDL uptake at 1.25 uM after 16 hrs by fluorescence assay; format: cell-based; design: scale not given: the % may be the effect or the level left
Huh-7 = assay: Inhibition of PCSK9 expression in human HuH7 cells after overnight incubation by ELISA; format: functional, cell-based
Hamster [17] = assay: In vivo inhibition of PCSK9 in dietary hyperlipidemia hamster model assessed as reduction in blood LDL-c level at 0.01 mg/kg, po administered daily for 7 days; format: functional; conditions: Cricetinae, 168 h
Hamster [18] = assay: In vivo inhibition of PCSK9 in dietary hyperlipidemia hamster model assessed as reduction in blood LDL-c level at 0.04 mg/kg, po administered daily for 7 days; format: functional; conditions: Cricetinae, 168 h
[19] = biological target: T1, Proprotein convertase subtilisin/kexin type 9; assay: Inhibition of recombinant PCSK9 (unknown origin) expressed in human HepG2 cells assessed as increase in LDL uptake at 10 uM after 16 hrs by fluorescence assay; format: cell-based; design: scale not given: the % may be the effect or the level left
[20] = biological target: T1, Proprotein convertase subtilisin/kexin type 9; assay: Inhibition of recombinant PCSK9 (unknown origin) expressed in human HepG2 cells assessed as increase in LDLR expression levels relative to control; format: cell-based; design: scale not given: the % may be the effect or the level left
[21] = biological target: T1, Proprotein convertase subtilisin/kexin type 9; assay: Inhibition of recombinant PCSK9 (unknown origin) expressed in human HepG2 cells assessed as increase in LDL uptake at 0.31 uM after 16 hrs by fluorescence assay; format: cell-based; design: scale not given: the % may be the effect or the level left
[22] = Ratio of drug level in liver to plasma in monkey at 30 mg/kg, po; format: ADME, organism-based, Macaca mulatta; conditions: rhesus monkey, liver and plasma
[23] = biological target: T1, Proprotein convertase subtilisin/kexin type 9; assay: Inhibition of PCSK9 in human HepG2 cells assessed as increase in LDL receptor levels at 200 uM after 18 to 24 hrs by Western blot analysis relative to control; format: cell-based

IC50 (HepG2): 2.1 nM
Compound: CC(=O)Nc1ccc2nc(-c3ccc(C(F)(F)F)cc3)oc2c1C(F)(F)F

Compound: CCN(CC)C(=O)c1ccc(NC(=O)CSc2nnc(-c3cccs3)n2C2CC2)cc1
fold change (FC) [1]: 3
fold change (FC) [2]: 5

Activity [3]: 50%
Compound: O=C(N[C@H](CNc1nn[nH]n1)Cc1c[nH]c2ccccc12)[C@H](Cc1ccc(O)cc1)NC(=O)C12CC3CC(CC(C3)C1)C2

Activity [4]: 95%
Activity [5]: 100%
Compound: H-VTVRFW-OH

Compound: CC(=O)N[C@H](C(=O)N[C@H](C(=O)N[C@@H](Cc1ccccc1)C(=O)N[C@H](C(=O)N[C@@H](CO)C(=O)N[C@@H](Cc1c[nH]c2ccccc12)C(=O)N[C@@H](CCC(=O)O)C(=O)N[C@@H](CCC(=O)O)C(=O)N[C@@H](Cc1ccc(O)cc1)C(=O)N[C@@H](CC(C)C)C(=O)N[C@@H](CC(=O)O)C(=O)N[C@@H](Cc1c[nH]c2ccccc12)C(=O)N[C@H](C(N)=O)C(C)C)[C@@H](C)O)C(C)C)[C@@H](C)O
Kd [6]: 700 nM

IC50 (HeLa): 500 nM
Compound: O=C(c1ccc(-n2nnc3cccnc32)cc1)N(c1ncccc1Cl)[C@@H]1CCCNC1
inhibition in vivo at 50 mg/kg (Rattus norvegicus [7]): 30%
inhibition in vivo at 50 mg/kg (Rattus norvegicus [8]): 50%
inhibition in vivo at 50 mg/kg (Rattus norvegicus [9]): 58%

IC50 [10]: 8300 nM
Compound: CC[C@H](C)[C@H](NC(=O)[C@H](CCCCNC(=N)N)NC(=O)[C@@H](NC(=O)[C@H](CC(C)C)NC(=O)[C@H](CC(N)=O)NC(=O)[C@H](Cc1c[nH]c2ccccc12)NC(=O)CNC(=O)[C@@H]1CCCN1C(=O)[C@H](Cc1ccccc1)NC(=O)[C@H](CO)NC(=O)[C@H](CCC(=O)O)NC(=O)[C@@H](N)CCSC)C(C)C)C(=O)NCC(=O)N[C@@H](CC(C)C)C(=O)N[C@@H](CC(C)C)C(=O)N[C@@H](CCCNC(=N)N)C(=O)O (H-MESFPGWNLV[hArg]IGLLR-OH)

inhibition [11]: 66%
Compound: O=S(=O)(Nc1cccc2c1CCCC2)c1ccc(N2CCNCC2)cc1

IC50 [12]: 11200 nM
Compound: Cn1cncc1-c1ncc(-c2ncc(-c3ncc(-c4ccccc4)n3C)n2C)n1C

IC50 (HeLa): 3700 nM
Compound: Cn1ncc(-c2ccc(C(=O)N(c3ncccc3Cl)[C@@H]3CCCNC3)cc2F)c1-c1nnn[nH]1

Compound: c1ccc2c(c1)NC1CNCCC21 (centres undefined)
Activity [13]: 60%

Activity [14]: 105%
Compound: CC(=O)N[C@@H](CO)C(=O)N[C@@H](COP(=O)(O)O)C(=O)N1CCC(c2ccc(C(F)(F)F)cc2)CC1

fold change (FC) [1]: 6
fold change (FC) [15]: 8
fold change (FC) [2]: 10
Compound: Cc1cc(C(=O)C2=C(O)C(=O)N(CCCN3CCOCC3)C2c2ccncc2)ccc1OCc1ccccc1 (centres undefined)
Activity (Mus musculus): 32%

Compound: CC(C)c1c(C(=O)Nc2ccccc2)c(-c2ccccc2)c(-c2ccc(F)cc2)n1CC[C@@H](O)C[C@@H](O)CC(=O)O [ATORVASTATIN]
Activity (Mus musculus): 27%

Activity [16]: 33%
Compound: Cc1cc2c(cc1-c1ccccc1F)C(=O)NCC2

IC50 (Huh-7): 2200 nM
Compound: COc1ccc(CCC(=O)N(c2nccc3ccccc23)[C@@H]2CCCNC2)cc1

IC50 (HepG2): 0.036 nM
Compound: FC(F)(F)c1ccc(-c2nc3ccc(C(F)(F)F)c(Cl)c3o2)cc1
inhibition in vivo at 0.01 mg/kg (Hamster [17]): 46%
inhibition in vivo at 0.04 mg/kg (Hamster [18]): 57%

Compound: Cc1cc2c(cc1-c1ccccc1F)CNCC2
Activity [19]: > 100%
Activity [20]: 10%
Activity [21]: 50%

IC50 (HepG2): 29.7 nM
Compound: FC(F)(F)c1ccc(-c2nc3c(ccc4cc[nH]c43)o2)cc1

Kp [22]: 28
Compound: CCOC(=O)O[C@@H](C)n1nnnc1-c1c(-c2ccc(C(=O)N(c3ncccc3Cl)[C@@H]3CCCNC3)cc2F)cnn1C [PF-06815345]

fold change (FC) [23]: 15
Compound: Cc1ccc(C(=O)Nc2ccc(S(=O)(=O)O)c3cc(S(=O)(=O)O)cc(S(=O)(=O)O)c23)cc1NC(=O)c1cccc(NC(=O)Nc2cccc(C(=O)Nc3cc(C(=O)Nc4ccc(S(=O)(=O)O)c5cc(S(=O)(=O)O)cc(S(=O)(=O)O)c45)ccc3C)c2)c1

inhibition [11]: > 50%
Compound: O=S(=O)(Nc1cccc2c1CCCC2)c1ccc(C2CCNCC2)cc1
